Legend:
Type in all cases: functional, cell-based
A549 = assay: Antiproliferative activity against human A549 cells assessed as reduction in cell viability by SRB assay
MDA-MB-231 = assay: Antiproliferative activity against human MDA-MB-231 cells assessed as reduction in cell viability by SRB assay
MCF7 = assay: Antiproliferative activity against human MCF7 cells assessed as reduction in cell viability by SRB assay
KB = assay: Antiproliferative activity against human KB cells assessed as reduction in cell viability by SRB assay
[1] = Antiproliferative activity against human KB-VIN cells over expressing p-gp assessed as reduction in cell viability by SRB assay; settings: KBVIN

Compound	IC50 (A549)	IC50 (MDA-MB-231)	IC50 (MCF7)	IC50 (KB)	IC50 [1]
CC(C)=CC(=O)C[C@@H](C)[C@H]1CC[C@@]2(C)[C@@H]3CC[C@H]4C(C)(C)C(=O)CC[C@@]45C[C@@]35CC[C@]12C	> 10 µM	> 10 µM	> 10 µM	> 10 µM	> 10 µM
C=C1CC[C@@H]2[C@H]([C@H]3[C@@H]1CC[C@]3(C)O)[C@@]2(C)CCC=C(C)C	> 10 µM	> 10 µM	> 10 µM	> 10 µM	> 10 µM
C=C[C@]1(C)C=C2C(=O)CC3C(C)(C)CCC[C@]3(C)C2CC1 (stereo partly drawn)	> 10 µM	> 10 µM	> 10 µM	> 10 µM	> 10 µM
CC(C)=CC(=O)C[C@@H](C)[C@H]1CC[C@@]2(C)[C@@H]3CC[C@H]4C(C)(C)[C@@H](O)CC[C@@]45C[C@@]35CC[C@]12C	> 10 µM	> 10 µM	> 10 µM	> 10 µM	> 10 µM
C[C@H]([C@H]1OC(C)(C)[C@@H](O)[C@@H]1O)[C@@H]1CC[C@]2(C)C3=CC[C@H]4C(C)(C)C(=O)CC[C@]4(C)[C@H]3CC[C@@]12C (relative stereo)	> 10 µM	> 10 µM	> 10 µM	> 10 µM	> 10 µM
C[C@@H](C[C@@H](O)[C@@H]1OC1(C)C)[C@@H]1CC[C@]2(C)C3=CC[C@H]4C(C)(C)C(=O)CC[C@]4(C)[C@H]3CC[C@@]12C	5.9 µM	7.1 µM	6.9 µM	4.6 µM	6.1 µM
C=C[C@]1(C)C=C2C(CC1)[C@@]1(C)CCCC(C)(C)C1C[C@@H]2O (stereo partly drawn)	> 10 µM	> 10 µM	> 10 µM	> 10 µM	> 10 µM
C[C@H](C/C=C/C(C)(C)O)[C@H]1CC[C@@]2(C)[C@@H]3CC[C@H]4C(C)(C)[C@H](O)CC[C@@]45C[C@@]35CC[C@]12C	> 10 µM	9.3 µM	> 10 µM	> 10 µM	> 10 µM
CC(C)=C[C@H](O)C[C@@H](CO)[C@H]1CC[C@@]2(C)[C@@H]3CC[C@H]4C(C)(C)C(=O)CC[C@@]45C[C@@]35CC[C@]12C (mixture of isomers)	> 10 µM	> 10 µM	> 10 µM	> 10 µM	9.9 µM
CC(C)=CCC[C@]1(C)[C@H]2[C@@H]3[C@H](C)CC[C@H]3[C@](C)(O)CC[C@H]21	8.9 µM	> 10 µM	> 10 µM	8.9 µM	> 10 µM
CC(=O)O[C@H]1C(=O)[C@@]2(C)[C@H]([C@H](OC(=O)c3ccccc3)[C@]3(O)C[C@H](OC(=O)[C@H](O)[C@@H](NC(=O)c4ccccc4)c4ccccc4)C(C)=C1C3(C)C)[C@]1(OC(C)=O)CO[C@@H]1C[C@@H]2O [PACLITAXEL]	–	0.0084 µM	–	0.0071 µM	2.21 µM
CC(C)=CCC[C@@H](CO)[C@H]1CC[C@@]2(C)[C@@H]3CC[C@H]4C(C)(C)C(=O)CC[C@@]45C[C@@]35CC[C@]12C	6.5 µM	7.4 µM	> 10 µM	3.9 µM	6.2 µM
CC(=O)O[C@H]1[C@@H](OC(C)=O)[C@@]2(C)C3=CC[C@@H]([C@H]4COC(=O)C4)[C@]3(C)CC[C@@H]2[C@@]2(C)[C@@H](O)C[C@@H](O)C(C)(C)[C@H]12	> 10 µM	> 10 µM	> 10 µM	> 10 µM	> 10 µM

Continued, in another order:

IC50 (A549)	IC50 (MDA-MB-231)	IC50 (MCF7)	IC50 (KB)	Compound	IC50 [1]
> 10 µM	> 10 µM	> 10 µM	> 10 µM	CC(C)CC(=O)[C@@H](O)[C@H](C)[C@@H]1CC[C@]2(C)C3=CC[C@H]4C(C)(C)C(=O)CC[C@]4(C)[C@H]3CC[C@@]12C	> 10 µM
> 10 µM	> 10 µM	> 10 µM	> 10 µM	CC1(C)C(=O)CC[C@@]2(C)C1CC=C1[C@@H]2CC[C@@]2(C)[C@H](C3CO[C@@H](C(C)(C)O)[C@H](O)C3)CC[C@]12C (stereo partly drawn)	> 10 µM
> 10 µM	> 10 µM	> 10 µM	> 10 µM	CC(C)=C[C@@H]1C[C@H]([C@H]2CC[C@@]3(C)[C@@H]4CC[C@H]5C(C)(C)C(=O)CC[C@@]56C[C@@]46CC[C@]23C)CO1	> 10 µM
> 10 µM	> 10 µM	> 10 µM	> 10 µM	C[C@H](C[C@@H](O)[C@@H]1OC1(C)C)[C@H]1CC[C@@]2(C)[C@@H]3CC[C@H]4C(C)(C)C(=O)CC[C@@]45C[C@@]35CC[C@]12C (relative stereo)	> 10 µM
8.3 µM	> 10 µM	> 10 µM	9.5 µM	CC1(C)OCC([C@@H]2CC[C@]3(C)C4=CC[C@H]5C(C)(C)C(=O)CC[C@]5(C)[C@H]4CC[C@@]23C)C[C@@H](O)[C@@H]1O (stereo partly drawn)	7.9 µM
9.1 µM	> 10 µM	> 10 µM	> 10 µM	CC(C)(O)[C@@H]1CC[C@H]([C@H]2CC[C@@]3(C)[C@@H]4CC[C@H]5C(C)(C)C(=O)CC[C@@]56C[C@@]46CC[C@]23C)CO1 (relative stereo)	> 10 µM
> 10 µM	> 10 µM	> 10 µM	> 10 µM	CC(C)=CC(O)C[C@H](C)[C@@H]1CC[C@]2(C)C3=CCC4C(C)(C)[C@@H](O)CC[C@]4(C)[C@H]3CC[C@@]12C (stereo partly drawn)	> 10 µM
8 µM	> 10 µM	> 10 µM	8.2 µM	C[C@@H](C[C@@H](O)[C@H](O)C(C)(C)O)[C@@H]1CC[C@]2(C)C3=CC[C@H]4C(C)(C)[C@@H](O)CC[C@]4(C)[C@H]3CC[C@@]12C	9.7 µM
> 10 µM	> 10 µM	> 10 µM	9 µM	C[C@@H]([C@H](O)/C=C/C(C)(C)O)[C@@H]1CC[C@]2(C)C3=CC[C@H]4C(C)(C)C(=O)CC[C@]4(C)[C@H]3CC[C@@]12C	9.5 µM
> 10 µM	> 10 µM	> 10 µM	> 10 µM	CC(C)=C[C@H]1C[C@H]([C@H]2CC[C@@]3(C)[C@@H]4CC[C@H]5C(C)(C)C(=O)CC[C@@]56C[C@@]46CC[C@]23C)CO1	> 10 µM
5.2 µM	4.7 µM	7.2 µM	4.8 µM	C[C@@H](C[C@@H](O)[C@@H]1OC1(C)C)[C@@H]1CC[C@]2(C)C3=CC[C@H]4C(C)(C)[C@@H](O)CC[C@]4(C)[C@H]3CC[C@@]12C [DIHYDRONILOTICIN]	5.1 µM
9.6 µM	> 10 µM	> 10 µM	> 10 µM	C[C@H](C/C=C/C(C)(C)O)[C@H]1CC[C@@]2(C)[C@@H]3CC[C@H]4C(C)(C)C(=O)CC[C@@]45C[C@@]35CC[C@]12C	> 10 µM
5.4 µM	> 10 µM	> 10 µM	8.1 µM	C[C@@H]([C@@H]1O[C@@H]1[C@@H]1OC1(C)C)[C@@H]1CC[C@]2(C)C3=CC[C@H]4C(C)(C)C(=O)CC[C@]4(C)[C@H]3CC[C@@]12C	8.3 µM

From ChEMBL document CHEMBL5576099, “Isolation, Characterization, and Antiproliferative Activity of Terpenoids from the Tropical Plant Turraea delphinensis” (J Nat Prod, 2024)
